Measurements taken from paper PMC8669712, “G Protein-Coupled Receptor GPR35 Suppresses Lipid Accumulation in Hepatocytes” (ACS Pharmacology & Translational Science, 2021).
Several values for one entry are separate records, joined by “and”; a condition that tells them apart may be missing. Equal entries are not always repeated.

Key:
[1] = biological target: mouse GPR35 (Mus musculus, UniProt Q9ES90); experiment: β-arrestin-based interaction assay, agonist potency at mouse GPR35; format: cell-based
mouse GPR35, sequence (Q9ES90 whole entry): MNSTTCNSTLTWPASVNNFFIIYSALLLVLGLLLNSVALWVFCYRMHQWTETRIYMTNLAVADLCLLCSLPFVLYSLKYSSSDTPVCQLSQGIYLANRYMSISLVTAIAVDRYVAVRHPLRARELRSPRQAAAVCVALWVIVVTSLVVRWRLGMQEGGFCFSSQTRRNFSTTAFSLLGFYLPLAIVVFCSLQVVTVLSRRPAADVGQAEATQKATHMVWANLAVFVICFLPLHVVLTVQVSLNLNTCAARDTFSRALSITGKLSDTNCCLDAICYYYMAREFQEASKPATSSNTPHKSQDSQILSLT

[2] = tested on: primary mouse hepatocytes; parameters: method as in Nam et al. 37; settings: ref Nam et al. 37; read-out: EC50 to limit lipid accumulation in mouse hepatocytes; cited from earlier work
[3] = tested on: hepatocytes from hGPR35a-HA-expressing mice; experiment: Label-free cellular impedance assay in hepatocytes from hGPR35a-HA-expressing mice; format: cell-based, mouse; settings: lodoxamide 1 × 10^–7 M
[4] = tested on: HepG2 cells; experiment: Oil Red O staining of LXR (T0901317)-induced lipid accumulation in HepG2 cells; format: cell-based, human
Description: Human hepatocellular carcinoma HepG2 cells were grown in Minimum Essential Medium (MEM) supplemented with 10% fetal bovine serum (FBS), 2 mM L-glutamine, 1× non-essential amino acid, 1 mM sodium pyruvate, and 1× penicillin/streptomycin. Materials for cell culture were all from Sigma-Aldrich (St. Louis, MO) or Thermo Fisher Scientific (Waltham, MA). Cells were incubated in a humidified CO2 incubator at 37 °C. […] Cells were seeded onto a 12-well plate (1 × 10^5 cells/well) for 24 h prior to drug treatment. […] Lipid accumulation was measured by Oil Red O staining.

[5] = tested on: GPR35 genome-edited HepG2 clones; experiment: Label-free cellular impedance assay in GPR35 genome-edited HepG2 clones 19 and 27; format: cell-based, human; settings: 1 × 10^–5 M
Description: Expression of full-length mRNA from the GPR35 gene was eliminated using a dual synthetic gRNA/RNP approach[43] with one guide cutting the intron and one in the exon region to generate a nonfunctional GPR35 protein. The gRNAs were designed with the CRISPR Finder (Welcome Sanger Institute). HepG2 cells were transfected with the Neon Transfection System from Thermo Fisher Scientific (Waltham, MA), according to the manufacturer’s instructions. Briefly, CrRNA and tracrRNA were annealed to gRNA at 95 °C for 5 min. Next, cells were transfected with gRNA, Cas9, and the electroporation enhancer, according to the manufacturer’s instructions. All crRNAs, tracrRNA, SpCas9 nuclease, and the electroporation enhancer were purchased from Integrated DNA Technologies (Coralville, IA). Transfected cells were plated and analyzed for editing efficiency 24–48 h after electroporation. Single-cell clones were generated by single-cell FACS sorting. Clones were expanded and to access editing efficiency, genomic DNA from cell clones was extracted and subjected to PCR to confirm the genome deletion. To further quantify and capture the genomic DNA deletion, PCR primers listed in Table S1 were designed to amplify the genomic DNA surrounding the target site. The PCR primers were linked to the sequences of the Illumina Nextera adapters. The amplified PCR products were subjected to paired-end sequencing using NextSeq500 from Illumina using paired-end chemistry with a 150-bp read length. In addition, mRNA from KO clones was isolated and subjected to RT-PCR. To further confirm the abrogation of GPR35 activation in CRISPR KO clones, KO cells were seeded onto xCELLigence E plates (2 × 10^4 cells/well) for 24 h at 37 °C prior to the treatment of GPR35 agonists. The impedance was recorded using xCELLigence RTCA. […]
HepG2 cells were seeded onto xCELLigence E plates (2 × 10^4 cells/well) and incubated for 24 h at 37 °C. […] After the addition of GPR35 agonist or vehicle control, the impedance (represented as “cell index”) was recorded every 30 s over a 2 h period using xCELLigence RTCA (Agilent). […]

[6] = tested on: clone 27 HepG2 cells transfected with human GPR35a; experiment: Cellular impedance in clone 27 cells transiently transfected with human GPR35a; format: cell-based; settings: lodoxamide 1 × 10^–8 M
Description: Briefly, CRISPR KO cells were transiently transfected 24 h with the human GPR35a expression vector using LipofectAMINE 3000 reagent, according to the manufacturer’s instructions. […] Alternatively, after 24 h transfection, cells were seeded onto a 12-well plate (1 × 10^5 cells/well) for 24 h at 37 °C. Then, cells were incubated with T0901317 and/or GPR35 agonists (in MEM containing 5% FBS) for 72 h. After the drug treatment, cells were stained with Oil Red O to examine the levels of lipid accumulation. Each experiment was repeated at least three times.
HepG2 cells were seeded onto xCELLigence E plates (2 × 10^4 cells/well) and incubated for 24 h at 37 °C. To evaluate GPR35 activation and its downstream G protein signaling, HepG2 cells or primary mouse hepatocytes were exposed to GPR35 antagonists or G protein inhibitors 1 h (overnight for Pertussis toxin) prior to GPR35 agonist stimulation. After the addition of GPR35 agonist or vehicle control, the impedance (represented as “cell index”) was recorded every 30 s over a 2 h period using xCELLigence RTCA (Agilent). Each experiment was repeated at least three times.

[7] = tested on: high-fat diet-induced wild-type mice; parameters: method as in PMID 31189299; settings: oral, 1 mg/kg, final 7 days of a 7-week-diet exposure; cited from earlier work

- fold lower potency at mouse GPR35 than at human GPR35 ([1]; mouse versus human GPR35): ~450 fold and ~500 fold
- EC50 ([1]; β-arrestin-based interaction assay, read-out: mouse GPR35, pEC50 (converted)): 1910 nM
- EC50 ([4]; Homo sapiens, co-incubation with T0901317 4 × 10^–6 M, 48 h, Oil Red O, read-out: EC50 for reduction in the lipid accumulation induced by T0901317): 95 nM
SMILES: N#Cc1cc(NC(=O)C(=O)O)c(Cl)c(NC(=O)C(=O)O)c1 [lodoxamide, 2-[2-chloro-5-cyano-3-(oxaloamino)anilino]-2-oxoacetic acid]
- EC50 [2]: 6.1 nM
- cellular impedance response in hepatocytes from hGPR35a-HA-expressing mice [3]: time-dependent increase in cellular impedance
- effect on basal lipid accumulation without co-addition of T0901317 ([4]; 1 × 10^–5 M): no significant effect
- effect of T0901317 on lipid accumulation at maximally effective concentrations of lodoxamide ([4]; T0901317 4 × 10^–6 M, 48 h): fully suppressed
- impedance signal in GPR35 genome-edited clones 19 and 27 [5]: not in either clone 19 or 27
- impedance signal in clone 27 cells transfected with human GPR35a [6]: stimulated signal
- effect of treatment in high-fat diet-induced wild-type mice [7]: beneficial effects
